Data taken from the OligoGym collection.
HELM strings list units from the 5' end as sugar, base in round brackets, then linkage (d deoxyribose, r ribose, m 2'-O-methyl, p phosphodiester). Strings are as the collection lists them; they lack the last nucleoside at the 3' end of the tested compound. [moe] = 2'-O-(2-methoxyethyl) (MOE); [sp] = phosphorothioate linkage; [m5C] = 5-methylcytosine

Target: SMN2
Assay: mouse, dose not given
Details: ASO

Substance “RNA1{[moe](A)[sp].[moe]([m5C])[sp].[moe](T)[sp].[moe](T)[sp].[moe](T)[sp].[moe]([m5C])p.[moe](A)p.[moe](T)p.[moe](A)p.[moe](A)p.[moe](T)p.[moe](G)p.[moe]([m5C])[sp].[moe](T)[sp].[moe](G)[sp].[moe](G)}$$$$ (last 3' nucleoside missing)” has a 3 h FOB score of 0 score 0-7.
“RNA1{[moe](A)[sp].[moe]([m5C])[sp].[moe](T)[sp].[moe](T)[sp].[moe](T)p.[moe]([m5C])p.[moe](A)p.[moe](T)p.[moe](A)[sp].[moe](A)[sp].[moe](T)[sp].[moe](G)[sp].[moe]([m5C])[sp].[moe](T)[sp].[moe](G)[sp].[moe](G)}$$$$ (last 3' nucleoside missing)” was tested, and the 3 h FOB score was 0 score 0-7.
“RNA1{[moe](A)[sp].[moe]([m5C])[sp].[moe](T)p.[moe](T)[sp].[moe](T)[sp].[moe]([m5C])[sp].[moe](A)[sp].[moe](T)[sp].[moe](A)[sp].[moe](A)[sp].[moe](T)[sp].[moe](G)[sp].[moe]([m5C])[sp].[moe](T)p.[moe](G)[sp].[moe](G)}$$$$ (last 3' nucleoside missing)” gave a 3 h FOB score of 0 score 0-7.
Substance “RNA1{[moe](A)[sp].[moe]([m5C])[sp].[moe](T)p.[moe](T)[sp].[moe](T)[sp].[moe]([m5C])[sp].[moe](A)[sp].[moe](T)[sp].[moe](A)p.[moe](A)[sp].[moe](T)[sp].[moe](G)[sp].[moe]([m5C])[sp].[moe](T)p.[moe](G)[sp].[moe](G)}$$$$ (last 3' nucleoside missing)” has a 3 h FOB score of 0 score 0-7.
“RNA1{[moe](A)[sp].[moe]([m5C])[sp].[moe](T)p.[moe](T)[sp].[moe](T)[sp].[moe]([m5C])[sp].[moe](A)p.[moe](T)[sp].[moe](A)[sp].[moe](A)[sp].[moe](T)p.[moe](G)[sp].[moe]([m5C])[sp].[moe](T)p.[moe](G)[sp].[moe](G)}$$$$ (last 3' nucleoside missing)” gave a 3 h FOB score of 0 score 0-7.
Work on “RNA1{[moe](A)[sp].[moe]([m5C])[sp].[moe](T)p.[moe](T)[sp].[moe](T)[sp].[moe]([m5C])p.[moe](A)[sp].[moe](T)[sp].[moe](A)p.[moe](A)[sp].[moe](T)[sp].[moe](G)p.[moe]([m5C])[sp].[moe](T)p.[moe](G)[sp].[moe](G)}$$$$ (last 3' nucleoside missing)” yielded a 3 h FOB score of 0 score 0-7.
With “RNA1{[moe](A)[sp].[moe]([m5C])[sp].[moe](T)p.[moe](T)[sp].[moe](T)p.[moe]([m5C])[sp].[moe](A)p.[moe](T)[sp].[moe](A)p.[moe](A)[sp].[moe](T)p.[moe](G)[sp].[moe]([m5C])p.[moe](T)[sp].[moe](G)[sp].[moe](G)}$$$$ (last 3' nucleoside missing)” the 3 h FOB score was 0 score 0-7.
“RNA1{[moe](A)[sp].[moe]([m5C])[sp].[moe](T)p.[moe](T)p.[moe](T)p.[moe]([m5C])p.[moe](A)[sp].[moe](T)[sp].[moe](A)[sp].[moe](A)[sp].[moe](T)[sp].[moe](G)[sp].[moe]([m5C])[sp].[moe](T)[sp].[moe](G)[sp].[moe](G)}$$$$ (last 3' nucleoside missing)” was tested, and the 3 h FOB score was 0 score 0-7.
“RNA1{[moe](A)[sp].[moe]([m5C])p.[moe](T)p.[moe](T)[sp].[moe](T)[sp].[moe]([m5C])[sp].[moe](A)[sp].[moe](T)[sp].[moe](A)[sp].[moe](A)[sp].[moe](T)[sp].[moe](G)[sp].[moe]([m5C])p.[moe](T)p.[moe](G)[sp].[moe](G)}$$$$ (last 3' nucleoside missing)” was tested, and the 3 h FOB score was 0 score 0-7.
With “RNA1{[moe](A)[sp].[moe]([m5C])p.[moe](T)p.[moe](T)p.[moe](T)[sp].[moe]([m5C])[sp].[moe](A)[sp].[moe](T)[sp].[moe](A)[sp].[moe](A)[sp].[moe](T)[sp].[moe](G)[sp].[moe]([m5C])p.[moe](T)p.[moe](G)[sp].[moe](G)}$$$$ (last 3' nucleoside missing)” the 3 h FOB score was 0 score 0-7.
For “RNA1{[moe](A)[sp].[moe]([m5C])p.[moe](T)p.[moe](T)p.[moe](T)[sp].[moe]([m5C])[sp].[moe](A)[sp].[moe](T)[sp].[moe](A)[sp].[moe](A)[sp].[moe](T)[sp].[moe](G)p.[moe]([m5C])p.[moe](T)p.[moe](G)[sp].[moe](G)}$$$$ (last 3' nucleoside missing)”, the 3 h FOB score was 0 score 0-7.
Work on “RNA1{[moe](A)[sp].[moe]([m5C])p.[moe](T)p.[moe](T)p.[moe](T)p.[moe]([m5C])[sp].[moe](A)[sp].[moe](T)[sp].[moe](A)[sp].[moe](A)[sp].[moe](T)[sp].[moe](G)p.[moe]([m5C])p.[moe](T)p.[moe](G)[sp].[moe](G)}$$$$ (last 3' nucleoside missing)” yielded a 3 h FOB score of 0 score 0-7.
“RNA1{[moe](A)p.[moe](T)[sp].[moe]([m5C])[sp].[moe](A)[sp].[moe]([m5C])[sp].[moe](T)[sp].[moe](T)[sp].[moe](T)[sp].[moe]([m5C])[sp].[moe](A)[sp].[moe](T)[sp].[moe](A)[sp].[moe](A)[sp].[moe](T)[sp].[moe](G)[sp].[moe]([m5C])[sp].[moe](T)[sp].[moe](G)}$$$$ (last 3' nucleoside missing)” showed a 3 h FOB score of 4 score 0-7.
Work on “RNA1{[moe](G)[sp].[moe](A)[sp].[moe](T)[sp].[moe](T)[sp].[moe]([m5C])[sp].[moe](A)[sp].[moe]([m5C])[sp].[moe](T)[sp].[moe](T)[sp].[moe](T)[sp].[moe]([m5C])[sp].[moe](A)[sp].[moe](T)[sp].[moe](A)[sp].[moe](A)[sp].[moe](T)[sp].[moe](G)[sp].[moe]([m5C])[sp].[moe](T)}$$$$ (last 3' nucleoside missing)” yielded a 3 h FOB score of 4 score 0-7.
With “RNA1{[moe](G)[sp].[moe](A)[sp].[moe](T)[sp].[moe](T)[sp].[moe]([m5C])[sp].[moe](A)[sp].[moe]([m5C])[sp].[moe](T)[sp].[moe](T)[sp].[moe](T)[sp].[moe]([m5C])[sp].[moe](A)[sp].[moe](T)[sp].[moe](A)[sp].[moe](A)[sp].[moe](T)[sp].[moe](G)[sp].[moe]([m5C])}$$$$ (last 3' nucleoside missing)” the 3 h FOB score was 2 score 0-7.
Work on “RNA1{[moe](T)[sp].[moe](T)[sp].[moe]([m5C])[sp].[moe](A)[sp].[moe]([m5C])[sp].[moe](T)[sp].[moe](T)[sp].[moe](T)[sp].[moe]([m5C])[sp].[moe](A)[sp].[moe](T)[sp].[moe](A)[sp].[moe](A)[sp].[moe](T)[sp].[moe](G)[sp].[moe]([m5C])[sp].[moe](T)[sp].[moe](G)}$$$$ (last 3' nucleoside missing)” yielded a 3 h FOB score of 3.75 score 0-7.
In the case of “RNA1{[moe](T)[sp].[moe](T)[sp].[moe]([m5C])[sp].[moe](A)[sp].[moe]([m5C])[sp].[moe](T)[sp].[moe](T)[sp].[moe](T)[sp].[moe]([m5C])[sp].[moe](A)[sp].[moe](T)[sp].[moe](A)[sp].[moe](A)[sp].[moe](T)[sp].[moe](G)[sp].[moe]([m5C])p.[moe](T)[sp].[moe](G)}$$$$ (last 3' nucleoside missing)”, the 3 h FOB score is reported as 1.75 score 0-7.
For “RNA1{[moe](T)[sp].[moe](T)[sp].[moe]([m5C])[sp].[moe](A)[sp].[moe]([m5C])[sp].[moe](T)[sp].[moe](T)[sp].[moe](T)[sp].[moe]([m5C])[sp].[moe](A)[sp].[moe](T)[sp].[moe](A)[sp].[moe](A)[sp].[moe](T)p.[moe](G)[sp].[moe]([m5C])p.[moe](T)[sp].[moe](G)}$$$$ (last 3' nucleoside missing)”, the 3 h FOB score was 1 score 0-7.
“RNA1{[moe](T)[sp].[moe](T)[sp].[moe]([m5C])[sp].[moe](A)[sp].[moe]([m5C])[sp].[moe](T)[sp].[moe](T)[sp].[moe](T)[sp].[moe]([m5C])p.[moe](A)[sp].[moe](T)[sp].[moe](A)[sp].[moe](A)[sp].[moe](T)[sp].[moe](G)[sp].[moe]([m5C])[sp].[moe](T)[sp].[moe](G)}$$$$ (last 3' nucleoside missing)” showed a 3 h FOB score of 3.75 score 0-7.
In the case of “RNA1{[moe](T)[sp].[moe](T)[sp].[moe]([m5C])[sp].[moe](A)[sp].[moe]([m5C])[sp].[moe](T)[sp].[moe](T)[sp].[moe](T)[sp].[moe]([m5C])p.[moe](A)[sp].[moe](T)[sp].[moe](A)[sp].[moe](A)[sp].[moe](T)[sp].[moe](G)[sp].[moe]([m5C])p.[moe](T)[sp].[moe](G)}$$$$ (last 3' nucleoside missing)”, the 3 h FOB score is reported as 2 score 0-7.
Substance “RNA1{[moe](T)[sp].[moe](T)p.[moe]([m5C])[sp].[moe](A)[sp].[moe]([m5C])[sp].[moe](T)[sp].[moe](T)[sp].[moe](T)[sp].[moe]([m5C])[sp].[moe](A)[sp].[moe](T)[sp].[moe](A)[sp].[moe](A)[sp].[moe](T)[sp].[moe](G)[sp].[moe]([m5C])[sp].[moe](T)[sp].[moe](G)}$$$$ (last 3' nucleoside missing)” has a 3 h FOB score of 3 score 0-7.
“RNA1{[moe](T)[sp].[moe](T)p.[moe]([m5C])[sp].[moe](A)[sp].[moe]([m5C])[sp].[moe](T)[sp].[moe](T)[sp].[moe](T)[sp].[moe]([m5C])[sp].[moe](A)[sp].[moe](T)[sp].[moe](A)[sp].[moe](A)[sp].[moe](T)[sp].[moe](G)[sp].[moe]([m5C])p.[moe](T)[sp].[moe](G)}$$$$ (last 3' nucleoside missing)” showed a 3 h FOB score of 1 score 0-7.
“RNA1{[moe](T)[sp].[moe](T)p.[moe]([m5C])[sp].[moe](A)[sp].[moe]([m5C])[sp].[moe](T)[sp].[moe](T)[sp].[moe](T)[sp].[moe]([m5C])p.[moe](A)[sp].[moe](T)[sp].[moe](A)[sp].[moe](A)[sp].[moe](T)[sp].[moe](G)[sp].[moe]([m5C])[sp].[moe](T)[sp].[moe](G)}$$$$ (last 3' nucleoside missing)” was tested, and the 3 h FOB score was 2.5 score 0-7.
For “RNA1{[moe](T)[sp].[moe](T)p.[moe]([m5C])[sp].[moe](A)p.[moe]([m5C])[sp].[moe](T)[sp].[moe](T)[sp].[moe](T)[sp].[moe]([m5C])[sp].[moe](A)[sp].[moe](T)[sp].[moe](A)[sp].[moe](A)[sp].[moe](T)[sp].[moe](G)[sp].[moe]([m5C])[sp].[moe](T)[sp].[moe](G)}$$$$ (last 3' nucleoside missing)”, the 3 h FOB score was 2.25 score 0-7.
